Assay results: publication PMC6271529, “Studies on the Anticonvulsant Activity and Influence on GABA-ergic Neurotransmission of 1,2,4-Triazole-3-thione-Based Compounds” (Molecules, 2014)
Read-outs that look alike come from different tables or passages of the source. One block for each compound: values may come before it.

How the values were obtained:
[1] = test system: maximal electroshock-induced seizures; test: Maximal electroshock-induced seizure (MES) test in mice; type: in vivo, mouse; conditions: for p/t, number of animals protected against MES-induced seizures / number tested / responders at 300 mg/kg / acute adverse effects at the screening dose: 300 mg/kg i.p.; for responders at 300 mg/kg / ED50: Mus musculus, ip; for responders at 300 mg/kg: read-out: percent of animals protected against MES-induced seizures; for ED50: read-out: ED50 ± S.E. (MES test); for PI (TD50/ED50): protective index; for onset of action: significant protection as early as 15 min after parenteral administration; for acute adverse effects at the screening dose: protective effect in MES could not be established; for anticonvulsant activity (in words): MES test
Procedure: Additionally, all efforts were made to minimize animal suffering and to use only the number of animals necessary to produce reliable scientific data.
In the initial stage of the study, groups of eight mice were supplied with the compounds (administered intraperitoneally) in a dose of 300 mg/kg and then exposed to electrical impulse at fixed intervals (15, 30, 60, 120 min).
Each mouse was used only once.
Fresh drug solutions were prepared on each day of experimentation and administered at 15, 30, 60 and 120 min. before the initiation of maximal electroconvulsions. Electroconvulsions were produced by a current (0.2 s stimulus duration; 500 V, 50 Hz, fixed current intensity of 25 mA) delivered via ear-clip electrodes by a Rodent Shocker generator (constant-current stimulator Type 221, Hugo Sachs Elektronik, Freiburg, Germany). The criterion for the occurrence of seizure activity was the tonic hind limb extension. The animals were administered with a constant dose of 300 mg/kg of each of the examined compounds and were subjected to MES-induced seizures. […] The animals were administered with different doses of the tested compounds so as to obtain a variable percentage of protection against maximal electroconvulsions, allowing the construction of dose-response relationship lines for each examined compound administered i.p. at various pretreatment times, according to Litchfield and Wilcoxon. Each ED50 value represents the dose of the studied compounds that is required to protect 50% of the animals tested against MES-induced seizures.

[2] = pretreatment time 120 min, mice
[3] = 0.25 h, pretreatment time 15 min, mice
[4] = 0.5 h, pretreatment time 30 min, mice
[5] = 1 h, pretreatment time 60 min, mice
[6] = 2 h, pretreatment time 120 min, mice
[7] = chimney TD50 / MES ED50, pretreatment time 15 min
[8] = chimney TD50 / MES ED50, pretreatment time 30 min

melting point: 156 to 158 °C
Structure (SMILES): Fc1ccc(N2CCN(Cn3nc(-c4ccc(Cl)cc4)n(-c4ccc(Br)cc4)c3=S)CC2)cc1 [Compound 30a, 4-(4-Bromophenyl)-5-(4-chlorophenyl)-2-{[4-(4-fluorophenyl)piperazin-1-yl]methyl}-2,4-dihydro-3H-1,2,4-triazole-3-thione]
p/t, number of animals protected against MES-induced seizures / number tested ([1]; pretreatment time 15 min, mice): 0/8
p/t, number of animals protected against MES-induced seizures / number tested ([1]; pretreatment time 30 min, mice): 0/8
p/t, number of animals protected against MES-induced seizures / number tested ([1]; pretreatment time 60 min, mice): 0/8
p/t, number of animals protected against MES-induced seizures / number tested [1, 2]: 0/8
responders at 300 mg/kg [1, 3]: 0%
responders at 300 mg/kg [1, 4]: 0%
responders at 300 mg/kg [1, 5]: 0%
responders at 300 mg/kg [1, 6]: 0%

melting point: 221 to 222 °C
Structure (SMILES): Fc1cccc(-n2c(-c3cccc(Cl)c3)n[nH]c2=S)c1 [Compound 2a, 5-(3-Chlorophenyl)-4-(3-fluorophenyl)-2,4-dihydro-3H-1,2,4-triazole-3-thione]
p/t, number of animals protected against MES-induced seizures / number tested ([1]; pretreatment time 15 min, mice): 0/8
p/t, number of animals protected against MES-induced seizures / number tested ([1]; pretreatment time 30 min, mice): 0/8
p/t, number of animals protected against MES-induced seizures / number tested ([1]; pretreatment time 60 min, mice): 0/8
p/t, number of animals protected against MES-induced seizures / number tested [1, 2]: 0/8
responders at 300 mg/kg [1, 3]: 0%
responders at 300 mg/kg [1, 4]: 0%
responders at 300 mg/kg [1, 5]: 0%
responders at 300 mg/kg [1, 6]: 0%

Structure (SMILES): S=c1n(CN2CCOCC2)nc(-c2ccc(Cl)cc2)n1-c1ccc(Br)cc1 [Compound 28a, 4-(4-Bromophenyl)-5-(4-chlorophenyl)-2-(morpholin-4-ylmethyl)-2,4-dihydro-3H-1,2,4-triazole-3-thione]
p/t, number of animals protected against MES-induced seizures / number tested ([1]; pretreatment time 15 min, mice): 0/8
p/t, number of animals protected against MES-induced seizures / number tested ([1]; pretreatment time 30 min, mice): 0/8
p/t, number of animals protected against MES-induced seizures / number tested ([1]; pretreatment time 60 min, mice): 0/8
p/t, number of animals protected against MES-induced seizures / number tested [1, 2]: 0/8
responders at 300 mg/kg [1, 3]: 0%
responders at 300 mg/kg [1, 4]: 0%
responders at 300 mg/kg [1, 5]: 0%
responders at 300 mg/kg [1, 6]: 0%

Structure (SMILES): S=c1n(CN2CCOCC2)nc(-c2cccc(Cl)c2)n1-c1ccc(Br)cc1 [Compound 19a, 4-(4-Bromophenyl)-5-(3-chlorophenyl)-2-(morpholin-4-ylmethyl)-2,4-dihydro-3H-1,2,4-triazole-3-thione]
p/t, number of animals protected against MES-induced seizures / number tested ([1]; pretreatment time 15 min, mice): 0/8
p/t, number of animals protected against MES-induced seizures / number tested ([1]; pretreatment time 30 min, mice): 0/8
p/t, number of animals protected against MES-induced seizures / number tested ([1]; pretreatment time 60 min, mice): 0/8
p/t, number of animals protected against MES-induced seizures / number tested [1, 2]: 0/8
responders at 300 mg/kg [1, 3]: 0%
responders at 300 mg/kg [1, 4]: 0%
responders at 300 mg/kg [1, 5]: 0%
responders at 300 mg/kg [1, 6]: 0%

Structure (SMILES): S=c1[nH]nc(-c2cccc(Cl)c2)n1-c1ccc(Cl)cc1 [Compound 4a, 4-(4-Chlorophenyl)-5-(3-chlorophenyl)-2,4-dihydro-3H-1,2,4-triazole-3-thione]
p/t, number of animals protected against MES-induced seizures / number tested ([1]; pretreatment time 15 min, mice): 8/8
p/t, number of animals protected against MES-induced seizures / number tested ([1]; pretreatment time 30 min, mice): 8/8
p/t, number of animals protected against MES-induced seizures / number tested ([1]; pretreatment time 60 min, mice): 7/8
p/t, number of animals protected against MES-induced seizures / number tested [1, 2]: 7/8
responders at 300 mg/kg [1, 3]: 100%
responders at 300 mg/kg [1, 4]: 100%
responders at 300 mg/kg [1, 5]: 87.5%
responders at 300 mg/kg [1, 6]: 87.5%
ED50 ([1]; pretreatment time 15 min, mice): 90.1 ± 15.7 mg/kg
ED50 ([1]; pretreatment time 30 min, mice): 135 ± 19.8 mg/kg
ED50 ([1]; pretreatment time 60 min, mice): 171 ± 21.4 mg/kg
ED50 [1, 2]: 184 ± 28 mg/kg
PI (TD50/ED50) [1, 7]: 3.9
PI (TD50/ED50) [1, 8]: 2.7
PI (TD50/ED50) ([1]; chimney TD50 / MES ED50, pretreatment time 60 min): 2.1
PI (TD50/ED50) ([1]; chimney TD50 / MES ED50, pretreatment time 120 min): 2.0
onset of action ([1]; MES, mice): quick onset of action

melting point: 200 to 201 °C
Structure (SMILES): Cc1cccc(-n2c(-c3cccc(Cl)c3)n[nH]c2=S)c1 [Compound 9a, 5-(3-Chlorophenyl)-4-(3-methylphenyl)-2,4-dihydro-3H-1,2,4-triazole-3-thione]
p/t, number of animals protected against MES-induced seizures / number tested ([1]; pretreatment time 15 min, mice): 0/8
p/t, number of animals protected against MES-induced seizures / number tested ([1]; pretreatment time 30 min, mice): 0/8
p/t, number of animals protected against MES-induced seizures / number tested ([1]; pretreatment time 60 min, mice): 0/8
p/t, number of animals protected against MES-induced seizures / number tested [1, 2]: 1/8
responders at 300 mg/kg [1, 3]: 0%
responders at 300 mg/kg [1, 4]: 0%
responders at 300 mg/kg [1, 5]: 0%
responders at 300 mg/kg [1, 6]: 12.5%

Structure (SMILES): S=c1n(CN2CCN(c3ccccc3)CC2)nc(-c2cccc(Cl)c2)n1-c1ccc(Br)cc1 [Compound 20a, 4-(4-Bromophenyl)-5-(3-chlorophenyl)-2-[(4-phenylpiperazin-1-yl)methyl]-2,4-dihydro-3H-1,2,4-triazole-3-thione]
p/t, number of animals protected against MES-induced seizures / number tested ([1]; pretreatment time 15 min, mice): 0/8
p/t, number of animals protected against MES-induced seizures / number tested ([1]; pretreatment time 30 min, mice): 0/8
p/t, number of animals protected against MES-induced seizures / number tested ([1]; pretreatment time 60 min, mice): 0/8
p/t, number of animals protected against MES-induced seizures / number tested [1, 2]: 0/8
responders at 300 mg/kg [1, 3]: 0%
responders at 300 mg/kg [1, 4]: 0%
responders at 300 mg/kg [1, 5]: 0%
responders at 300 mg/kg [1, 6]: 0%

melting point: 186 to 188 °C
Structure (SMILES): Cc1ccccc1-n1c(-c2cccc(Cl)c2)n[nH]c1=S [Compound 8a, 5-(3-Chlorophenyl)-4-(2-methylphenyl)-2,4-dihydro-3H-1,2,4-triazole-3-thione]
p/t, number of animals protected against MES-induced seizures / number tested ([1]; pretreatment time 15 min, mice): 0/8
p/t, number of animals protected against MES-induced seizures / number tested ([1]; pretreatment time 30 min, mice): 0/8
p/t, number of animals protected against MES-induced seizures / number tested ([1]; pretreatment time 60 min, mice): 0/8
p/t, number of animals protected against MES-induced seizures / number tested [1, 2]: 0/8
responders at 300 mg/kg [1, 3]: 0%
responders at 300 mg/kg [1, 4]: 0%
responders at 300 mg/kg [1, 5]: 0%
responders at 300 mg/kg [1, 6]: 0%

Structure (SMILES): Fc1ccc(-n2c(-c3cccc(Cl)c3)n[nH]c2=S)cc1 [Compound 3a, 5-(3-Chlorophenyl)-4-(4-fluorophenyl)-2,4-dihydro-3H-1,2,4-triazole-3-thione]
acute adverse effects at the screening dose ([1]; mice): acute adverse effects
anticonvulsant activity (in words) ([1]; mice): most potent activity
ED50 ([1]; pretreatment time 15 min, mice): 35.2 ± 5.3 mg/kg
ED50 ([1]; pretreatment time 30 min, mice): 93.6 ± 9.4 mg/kg
ED50 ([1]; pretreatment time 60 min, mice): > 200 mg/kg
ED50 [1, 2]: > 200 mg/kg
time to peak of the anticonvulsant action ([1]; after i.p. administration, MES, mice): 15 min
anticonvulsant activity at decreased doses ([1]; doses lowered to those not inducing neurotoxic effects, MES, mice): retained its anticonvulsant activity
anticonvulsant activity relative to valproate ([1]; from ED50 values, MES): approximately five and a half times higher than that of valproate
PI (TD50/ED50) [1, 7]: 3.9
PI (TD50/ED50) [1, 8]: 1.6
onset of action ([1]; MES, mice): quick onset of action

melting point: 218 to 220 °C
Structure (SMILES): CC(=O)c1ccc(-n2c(-c3cccc(Cl)c3)n[nH]c2=S)cc1 [Compound 11a, 4-(4-Acetylphenyl)-5-(3-chlorophenyl)-2,4-dihydro-3H-1,2,4-triazole-3-thione]
p/t, number of animals protected against MES-induced seizures / number tested ([1]; pretreatment time 15 min, mice): 1/8
p/t, number of animals protected against MES-induced seizures / number tested ([1]; pretreatment time 30 min, mice): 1/8
p/t, number of animals protected against MES-induced seizures / number tested ([1]; pretreatment time 60 min, mice): 1/8
p/t, number of animals protected against MES-induced seizures / number tested [1, 2]: 0/8
responders at 300 mg/kg [1, 3]: 12.5%
responders at 300 mg/kg [1, 4]: 12.5%
responders at 300 mg/kg [1, 5]: 12.5%
responders at 300 mg/kg [1, 6]: 0%

Structure (SMILES): S=c1[nH]nc(-c2cccc(Cl)c2)n1-c1ccc(I)cc1 [Compound 7a, 5-(3-Chlorophenyl)-4-(4-iodophenyl)-2,4-dihydro-3H-1,2,4-triazole-3-thione]
p/t, number of animals protected against MES-induced seizures / number tested ([1]; pretreatment time 15 min, mice): 0/8
p/t, number of animals protected against MES-induced seizures / number tested ([1]; pretreatment time 30 min, mice): 0/8
p/t, number of animals protected against MES-induced seizures / number tested ([1]; pretreatment time 60 min, mice): 0/8
p/t, number of animals protected against MES-induced seizures / number tested [1, 2]: 0/8
anticonvulsant activity (in words) ([1]; mice): inactive
responders at 300 mg/kg [1, 3]: 0%
responders at 300 mg/kg [1, 4]: 0%
responders at 300 mg/kg [1, 5]: 0%
responders at 300 mg/kg [1, 6]: 0%

melting point: 238 to 240 °C
Structure (SMILES): S=c1[nH]nc(-c2ccc(Cl)cc2)n1-c1ccc(Cl)cc1Cl [Compound 14a, 5-(4-Chlorophenyl)-4-(2,4-dichlorophenyl)-2,4-dihydro-3H-1,2,4-triazole-3-thione]
acute adverse effects at the screening dose ([1]; mice): acute adverse effects

Structure (SMILES): Fc1ccc(N2CCN(Cn3nc(-c4cccc(Cl)c4)n(-c4ccc(Br)cc4)c3=S)CC2)cc1 [Compound 21a, 4-(4-Bromophenyl)-5-(3-chlorophenyl)-2-{[4-(4-fluorophenyl)piperazin-1-yl]methyl}-2,4-dihydro-3H-1,2,4-triazole-3-thione]
p/t, number of animals protected against MES-induced seizures / number tested ([1]; pretreatment time 15 min, mice): 0/8
p/t, number of animals protected against MES-induced seizures / number tested ([1]; pretreatment time 30 min, mice): 0/8
p/t, number of animals protected against MES-induced seizures / number tested ([1]; pretreatment time 60 min, mice): 0/8
p/t, number of animals protected against MES-induced seizures / number tested [1, 2]: 0/8
responders at 300 mg/kg [1, 3]: 0%
responders at 300 mg/kg [1, 4]: 0%
responders at 300 mg/kg [1, 5]: 0%
responders at 300 mg/kg [1, 6]: 0%
